{
  "source": "patent US20120077801A1",
  "about": "“Chemical Compounds 637” (priority 2007, published 2012)",
  "key": {"[1]": {"biological_target": "T1, recombinant Human Phosphodiesterase B2 (PDE4B2) (Homo sapiens, UniProt Q07343)", "T1 sequence (Q07343 1-564 isoform Q07343-2)": "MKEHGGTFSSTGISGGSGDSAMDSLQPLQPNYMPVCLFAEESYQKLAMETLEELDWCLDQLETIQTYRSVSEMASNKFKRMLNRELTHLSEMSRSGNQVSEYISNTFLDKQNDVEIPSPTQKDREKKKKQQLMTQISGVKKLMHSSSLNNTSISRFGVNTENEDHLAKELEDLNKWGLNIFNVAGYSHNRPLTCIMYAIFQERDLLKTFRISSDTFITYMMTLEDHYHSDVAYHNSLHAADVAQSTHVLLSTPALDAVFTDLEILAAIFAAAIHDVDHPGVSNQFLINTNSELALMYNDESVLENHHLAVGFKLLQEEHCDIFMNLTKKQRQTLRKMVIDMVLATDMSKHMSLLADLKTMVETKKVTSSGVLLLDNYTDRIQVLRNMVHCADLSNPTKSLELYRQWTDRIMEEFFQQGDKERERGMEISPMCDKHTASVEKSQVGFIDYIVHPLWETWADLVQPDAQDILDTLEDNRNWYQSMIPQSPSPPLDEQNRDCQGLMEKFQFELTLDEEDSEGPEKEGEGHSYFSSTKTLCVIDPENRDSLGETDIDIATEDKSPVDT", "assay": "Human Phosphodiesterase B2 Radiometric Assay", "assay_type": "biochemical", "conditions": "for IC50: read-out: PDE4B2 pIC50 (converted)", "method": "Human Phosphodiesterase B2 Radiometric Assay\nThe assay uses recombinant Human Phosphodiesterase B2 (PDE4B2) produced in house (PrAZL0163), stored at −20° C. This assay is based on the observation that 5′AMP, the product of the reaction catalysed by PDE4, binds preferentially to yttrium silicate SPA beads (Amersham Biosciences, UK) compared to the substrate, cAMP. Compounds at the appropriate concentration were preincubated at 30 C for 30 min. with an assay buffer containing 50 mM HEPES (pH 7.5), 8.3 mM MgCl2, 1.7 mM EGTA, 0.01% (w/v) Brij®35 and 0.1 μg/mL recombinant PDE4B2. The reaction was started by the addition of [3H]cyclic AMP to give a final concentration of 8 nM, and was stopped 20 minutes after the addition of the substrate by the addition of yttrium silicate SPA beads containing 18 mM Zn SO4. Bound [3H]cyclic AMP was measured using a Topcount NXT (Packard Bioscience, UK). pIC50 values (presented in Table 15) were determined using X1fit3 curve fitting, using model 205."}, "[2]": {"biological_target": "T1, recombinant Human Phosphodiesterase B2 (PDE4B2)", "assay": "Human Phosphodiesterase B2 Alpha Screen Assay", "assay_type": "biochemical", "conditions": "Alpha Screen cAMP assay, 60 minutes incubation at room temperature, read-out: PDE4B2 pIC50 (converted)", "method": "Human Phosphodiesterase B2 Alpha Screen Assay\nThe assay uses recombinant Human Phosphodiesterase B2 (PDE4B2) produced in house (PrAZL0133), stored at −20° C. The substrate uses cAMP, part of the Alpha Screen cAMP kit (Perkin Elmer, Cat#6760625M), stored at 4° C. The Alpha Screen kit also includes biotinylated cAMP, acceptor and donor beads.\nThe assay additions were as follows: Test compounds and controls were added to white 384-well flat-bottom plates (Greiner, Cat#781075), 0.2 μl in 100% DMSO, followed by 10 μl PDE4B2 in reaction buffer. The reaction buffer constitution was: 50 mM Tris (pH 7.5), 8.3 mM MgCl2, 1.7 mM EGTA and 0.01% (w/v) Brij®35. The enzyme and the compounds were incubated at room temperature for 15 minutes. Then 10 μl cAMP in reaction buffer was added. The assay was stopped after 60 minutes incubation at room temperature by adding 10 μl acceptor beads in detection buffer with 40 mM EDTA. The detection buffer constitution was: 5 mM Tris (pH 7.5), 0.1% (w/v) BSA and 0.1% (v/v) Tween 20. This addition followed by an addition of 10 μl donor beads in detection buffer, with biotinylated cAMP. The plates were then incubated, dark at room temperature, for 5 hours followed by measurement on a Fusion™-α analyser. pIC50 values (presented in Table 14) were determined using X1fit curve fitting using model 205."}, "[3]": {"conditions": "recombinant human PDE4B2, [3H]cyclic AMP 8 nM, SPA radiometric assay"}},
  "data": [
    {"smiles": "O=C(NC1CN2CCC1CC2)c1cccc(-n2c(=O)n([C@H]3CC[C@@H](NC(=O)c4cn5cc(F)ccc5n4)CC3)c(=O)c3cc(F)cnc32)c1", "note": "(some centres unmarked) [Example 42]", "values": [
      {"measurement": "PDE4B2 pIC50", "setting": "[1]; [3]", "result": 7.7}
    ]},
    {"smiles": "CN1CCC(n2c(=O)n([C@H]3CC[C@@H](NC(=O)c4cn5cc(F)ccc5n4)CC3)c(=O)c3cc(F)cnc32)CC1", "note": "[Example 40, 6-fluoro-N-{cis-4-[6-fluoro-1-(1-methylpiperidin-4-yl)-2,4-dioxo-1,4-dihydropyrido[2,3-d]pyrimidin-3(2H)-yl]cyclohexyl}imidazo[1,2-a]pyridine-2-carboxamide]", "values": [
      {"measurement": "PDE4B2 % at 0.32 uM (printed in the pIC50 column)", "setting": "[1]; at 0.32 uM, recombinant human PDE4B2, radiometric assay", "result": 50, "unit": "% at 0.32 uM"}
    ]},
    {"smiles": "COC(=O)[C@H]1CC[C@H](n2c(=O)n([C@H]3CC[C@@H](NC(=O)C4CC4)CC3)c(=O)c3cc(F)cnc32)CC1", "note": "[Example 8, methyl trans-4-[3-{cis-4-[(cyclopropylcarbonyl)amino]cyclohexyl}-6-fluoro-2,4-dioxo-3,4-dihydropyrido[2,3-d]pyrimidin-1(2H)-yl]cyclohexanecarboxylate]", "values": [
      {"measurement": "IC50", "setting": "[2]", "result": 50.1, "unit": "nM"}
    ]},
    {"smiles": "O=C(N[C@H]1CC[C@@H](n2c(=O)c3cc(F)cnc3n(-c3cccc(OCCN4CCOCC4)c3)c2=O)CC1)c1cn2cc(F)ccc2n1", "note": "[Example 43, 6-fluoro-N-{cis-4-[6-fluoro-1-[3-(2-morpholin-4-ylethoxy)phenyl]-2,4-dioxo-1,4-dihydropyrido[2,3-d]pyrimidin-3 (2H)-yl]cyclohexyl}imidazo[1,2-a]pyridine-2-carboxamide]", "values": [
      {"measurement": "IC50", "setting": "[1]; [3]", "result": 1, "unit": "nM"}
    ]},
    {"smiles": "CN(C)CCCn1c(=O)n([C@H]2CC[C@@H](NC(=O)c3cn4cc(F)ccc4n3)CC2)c(=O)c2cc(F)cnc21", "note": "[Example 41, N-{cis-4-[1-[3-(dimethylamino)propyl]-6-fluoro-2,4-dioxo-1,4-dihydropyrido[2,3-d]pyrimidin-3(2H)-yl]cyclohexyl}-6-fluoroimidazo[1,2-a]pyridine-2-carboxamide]", "values": [
      {"measurement": "IC50", "setting": "[1]; [3]", "result": 158, "unit": "nM"}
    ]}
  ]
}
